# In patent US9676780B2, “Piperazine-substituted [1,2,4]triazolo[1,5-C]quinazolin-5-amine compounds with A2A antagonist properties” (MERCK SHARP & DOHME CORP., priority 2012, dated 2017):
# Molecular target: T1, human A2a receptor (Homo sapiens, UniProt P29274)
# T1 construct: purchased Perkin-Elmer RBHA2AM400UA; host or cells: HEK293
# Experiment: A2a receptor competition binding assay (Scintillation Proximity, tritiated radioligand)
# Conditions: membranes from HEK293 cells expressing the human A2a receptor; 0.5 nM tritiated ligand; SPA beads; one hour at room temperature; read-out: A2a EC50
# Experimental: Binding affinities of compounds of the invention for the human A2a receptor were determined in a competition binding assay using Scintillation Proximity technology. […] The beads were then allowed to settle to the bottom of the wells for 1 hr, after which the membrane-associated radioactivity was determined by scintillation counting in a TopCount microplate reader. Ki values were determined using the Cheng-Prusoff equation.
# • HEK293 cells expressing the human, rat, dog or monkey adenosine 2a receptor (Purchased from Perkin-Elmer # RBHA2AM400UA). • The Tritiated compound was prepared in-house by MRL Radiochemistry according to published methods. • Wheatgerm agglutinin-coated yttrium silicate SPA beads (GE Healthcare #RPNQ0023). […] This is a 2.5× solution. The final concentration in the assay is 0.5 nM. Calculate the concentration by counting two 5 ul aliquots. Membrane Preparation • Use 0.25 ug of membrane/well. Dilute membranes to 9.7 ug/ml in assay buffer. Treat with 20 ug/ml adenosine deaminase (ADA) for 15 minutes at room temperature to degrade endogenous adenosine. Membrane-Bead Mixture • Use 100 ug/well wheatgerm agglutinin-coated yttrium silicate SPA beads. • Mix ADA-treated membranes and SPA beads together for 30 min prior to assay. […] Incubate for one hour at room temperature with agitation. • Include total binding (assay buffer+1% DMSO) and non-specific binding (CGS15943, 1 uM) wells. Counting • Allow the beads to settle for one hour. • Count in TopCount. Calculations • A curve fitting program (i.e., Prism, Activity Base, Chemcart) is used to determine the EC50.
# The Ki value is calculated using the Cheng-Prusoff equation. Ki=EC50/(1+(radioligand concentration/Kd))
# T1 sequence (P29274 whole entry): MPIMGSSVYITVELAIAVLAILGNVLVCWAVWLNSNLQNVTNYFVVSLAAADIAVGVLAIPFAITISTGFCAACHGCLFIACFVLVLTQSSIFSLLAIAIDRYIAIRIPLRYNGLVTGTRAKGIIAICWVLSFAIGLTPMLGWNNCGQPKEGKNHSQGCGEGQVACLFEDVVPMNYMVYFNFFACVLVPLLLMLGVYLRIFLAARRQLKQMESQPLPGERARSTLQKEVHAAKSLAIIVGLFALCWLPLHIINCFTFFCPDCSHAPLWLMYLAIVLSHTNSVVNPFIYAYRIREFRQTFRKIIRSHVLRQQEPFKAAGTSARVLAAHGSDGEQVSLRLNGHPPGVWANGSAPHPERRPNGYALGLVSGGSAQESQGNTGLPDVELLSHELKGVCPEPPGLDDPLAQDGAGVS
row,EC50 [nM],SMILES
1,4.95,COc1cccc2c1nc(N)n1nc(CN3CCN(c4cc(F)cc(Cl)c4)CC3C)nc21 (stereo not shown) [Ex-101]
2,2.14,COc1cccc2c1nc(N)n1nc(CN3CCN(c4ccc(F)c(Cl)c4)CC3C)nc21 (stereo not shown) [Ex-102]
3,5.56,COc1cc(Cl)cc(N2CCN(Cc3nc4c5cccc(OC)c5nc(N)n4n3)C(C)C2)c1 (stereo not shown) [Ex-103]
4,23.1,COc1cccc2c1nc(N)n1nc(CN3CCN(c4ccncc4F)CC3C)nc21 (stereo not shown) [Ex-104]
5,16.8,COc1cc(N2CCN(Cc3nc4c5cccc(OC)c5nc(N)n4n3)C(C)C2)ccn1 (stereo not shown) [Ex-105]
6,4.73,COc1cccc2c1nc(N)n1nc(CN3CCN(c4cc(F)cc(F)c4)CC3C)nc21 (stereo not shown) [Ex-106]
7,6.98,COc1cccc2c1nc(N)n1nc(CN3CCN(c4cc(F)ccn4)CC3C)nc21 (stereo not shown) [Ex-107]
8,4.66,COc1cccc2c1nc(N)n1nc(CN3CCN(c4nsnc4OCCO)CC3C)nc21 (stereo not shown) [Ex-109]
9,1.6,COc1cccc2c1nc(N)n1nc(CN3CCN(c4cccc5c4cnn5C)CC3C)nc21 (stereo not shown) [Ex-112]
10,27.3,COc1cccc2c1nc(N)n1nc(CN3CCN(c4cnccn4)CC3C)nc21 (stereo not shown) [Ex-113]
11,12.3,COc1cccc2c1nc(N)n1nc(CN3CCN(c4cc(C#N)ccn4)CC3C)nc21 (stereo not shown) [Ex-114]
12,1.39,COc1cc(N2CCN(Cc3nc4c5cccc(OC)c5nc(N)n4n3)C(C)C2)ccc1F (stereo not shown) [Ex-115]
13,3.03,COc1cncc(N2CCN(Cc3nc4c5cccc(OC)c5nc(N)n4n3)C(C)C2)c1OC (stereo not shown) [Ex-116]
14,13.2,COc1ccc(Cl)c(N2CCN(Cc3nc4c5cccc(OC)c5nc(N)n4n3)C(C)C2)c1 (stereo not shown) [Ex-121]
15,4.86,COc1cccc2c1nc(N)n1nc(CN3CCN(c4ncc(F)cc4F)CC3C)nc21 (stereo not shown) [Ex-122]
16,4.25,COc1cccc2c1nc(N)n1nc(CN3CCN(c4cc(C(F)F)ccn4)CC3C)nc21 (stereo not shown) [Ex-123]
17,2.82,COc1cccc2c1nc(N)n1nc(CN3CCN(c4cc(Cl)cc(Cl)c4)CC3C)nc21 (stereo not shown) [Ex-124]
18,1.03,COc1cc(N2CCN(Cc3nc4c5cccc(OC)c5nc(N)n4n3)C(C)C2)ccc1Cl (stereo not shown) [Ex-125]
19,2.39,COc1cccc2c1nc(N)n1nc(CN3CCN(c4cccc(N(C)C)c4)CC3C)nc21 (stereo not shown) [Ex-126]
20,3.08,COc1cccc2c1nc(N)n1nc(CN3CCN(c4ccc(Cl)c(Cl)c4)CC3C)nc21 (stereo not shown) [Ex-127]
21,0.964,COc1cccc2c1nc(N)n1nc(CN3CCN(c4ccc5c(c4)c(C)nn5C)CC3C)nc21 (stereo not shown) [Ex-128]
22,11.6,COc1cccc2c1nc(N)n1nc(CN3CCN(c4c(C)nn(C)c4C)CC3C)nc21 (stereo not shown) [Ex-129]
23,0.898,COc1cccc2c1nc(N)n1nc(CN3CCN(c4ccc5c(cnn5C)c4)CC3C)nc21 (stereo not shown) [Ex-130]

row,EC50 [nM],SMILES
1,0.698,COc1cccc2c1nc(N)n1nc(CN3CCN(c4ccc5nn(C)cc5c4)CC3C)nc21 (stereo not shown) [Ex-131]
2,2.04,COc1cccc2c1nc(N)n1nc(CN3CCN(c4cccc5nn(C)cc45)CC3C)nc21 (stereo not shown) [Ex-132]
3,1.68,COc1cc(OC)cc(N2CCN(Cc3nc4c5cccc(OC)c5nc(N)n4n3)C(C)C2)c1 (stereo not shown) [Ex-133]
4,4.57,COc1cccc2c1nc(N)n1nc(CN3CCN(c4ccc(Cl)cn4)CC3C)nc21 (stereo not shown) [Ex-134]
5,10.7,COc1cccc2c1nc(N)n1nc(CN3CCN(c4nccnc4C)CC3C)nc21 (stereo not shown) [Ex-135]
6,11.4,COc1cccc2c1nc(N)n1nc(CN3CCN(c4ccc(F)c(C)n4)CC3C)nc21 (stereo not shown) [Ex-136]
7,20.6,COc1cccc2c1nc(N)n1nc(CN3CCN(c4ccc(C#N)cn4)CC3C)nc21 (stereo not shown) [Ex-137]
8,14.3,COc1cccc2c1nc(N)n1nc(CN3CCN(c4ccc(C)cn4)CC3C)nc21 (stereo not shown) [Ex-138]
9,81.8,COc1cccc2c1nc(N)n1nc(CN3CCN(c4cc(C(F)(F)F)c(C(F)(F)F)cn4)CC3C)nc21 (stereo not shown) [Ex-139]
10,4.93,COc1cccc2c1nc(N)n1nc(CN3CCN(c4cnn(CC(C)(C)C)c4)CC3C)nc21 (stereo not shown) [Ex-140]
11,16.5,COc1ccnc(N2CCN(Cc3nc4c5cccc(OC)c5nc(N)n4n3)C(C)C2)c1 (stereo not shown) [Ex-142]
12,13.9,COc1cccc2c1nc(N)n1nc(CN3CCN(c4cccc(S(C)(=O)=O)c4)CC3C)nc21 (stereo not shown) [Ex-143]
13,20.1,COc1cccc2c1nc(N)n1nc(CN3CCN(c4cnccc4C)CC3C)nc21 (stereo not shown) [Ex-144]
14,6.35,COc1cncc(N2CCN(Cc3nc4c5cccc(OC)c5nc(N)n4n3)C(C)C2)c1 (stereo not shown) [Ex-146]
15,18,COc1cccc2c1nc(N)n1nc(CN3CCN(c4ncccc4C(F)(F)F)CC3C)nc21 (stereo not shown) [Ex-148]
16,13.4,COc1cccc2c1nc(N)n1nc(CN3CCN(c4cc(F)cc(C(=O)O)c4)CC3C)nc21 (stereo not shown) [Ex-149]
17,2.22,COc1cccc2c1nc(N)n1nc(CN3CCN(c4ccc(OCC(F)F)cc4)CC3C)nc21 (stereo not shown) [Ex-151]
18,2.2,COc1cccc2c1nc(N)n1nc(CN3CCN(c4ccc(OCC5CC5)cc4)CC3C)nc21 (stereo not shown) [Ex-152]
19,4.1,COc1cccc2c1nc(N)n1nc(CCN3CCN(c4ccc(F)cc4)C[C@H]3C)nc21 [Ex-168]
20,2.6,COc1cccc2c1nc(N)n1nc(CCN3CCN(c4ccc(F)cn4)C[C@H]3C)nc21 [Ex-169]
21,22.6,COc1cccc2c1nc(N)n1nc(CN3CCN(c4ccc(C(F)(F)F)cn4)C[C@H]3C)nc21 [Ex-173]
22,10.2,COc1cccc2c1nc(N)n1nc(CN3CCN(c4ccc(F)cn4)[C@@H](C)C3)nc21 [Ex-182]

# Further lines, the molecule ahead of its results:
row,SMILES,EC50 [nM]
1,COc1cccc2c1nc(N)n1nc(CN3CCN(c4ccc5nc(C6CC6)oc5c4)CC3C)nc21 (stereo not shown) [Ex-110],1.1
2,COc1cccc2c1nc(N)n1nc(CN3CCN(c4ccc(C(F)(F)F)c(C(F)(F)F)c4)CC3C)nc21 (stereo not shown) [Ex-117],12.7
3,COc1ccc(N2CCN(Cc3nc4c5cccc(OC)c5nc(N)n4n3)C(C)C2)cc1C(F)(F)F (stereo not shown) [Ex-118],1.25
4,COc1cccc2c1nc(N)n1nc(CN3CCN(c4ccc(N5CCOCC5)cc4)CC3C)nc21 (stereo not shown) [Ex-119],1.97
5,COc1cccc2c1nc(N)n1nc(CN3CCN(c4cc(C(F)(F)F)cc(C(F)(F)F)c4)CC3C)nc21 (stereo not shown) [Ex-120],20.7
6,COCc1c2cc(N3CCN(Cc4nc5c6cccc(OC)c6nc(N)n5n4)C(C)C3)ccc2nn1C (stereo not shown) [Ex-141],2.34
7,COc1cccc2c1nc(N)n1nc(C(=O)N3CCN(CC(F)(F)F)CC3C)nc21 (stereo not shown) [Ex-147],6.6
8,COc1cccc2c1nc(N)n1nc(CN3C(C)CN(c4ccc(F)cn4)CC3C)nc21 (stereo not shown) [Ex-150],15
9,COc1cccc2c1nc(N)n1nc(CC(=O)N3CCN(c4ccccn4)CC3)nc21 [Ex-153],7.3
10,COc1cccc2c1nc(N)n1nc(CC(=O)N3CCN(c4ccc(F)cc4)C[C@H]3C)nc21 [Ex-154],2.6
11,C[C@@H]1CN(c2ccc(F)cc2)CCN1Cc1nc2c3cccc(C(F)(F)F)c3nc(N)n2n1 [Ex-155],136
12,C[C@@H]1CN(c2ccc(F)cc2)CCN1Cc1nc2c3cccc(C#N)c3nc(N)n2n1 [Ex-156],740
13,C[C@@H]1CN(c2ccc(F)cc2)CCN1Cc1nc2c3cccc(Br)c3nc(N)n2n1 [Ex-157],14.4
14,COc1cccc2c1nc(N)n1nc(CCCN3CCN(c4ccccn4)CC3)nc21 [Ex-158],7.1
15,Cc1noc2cc(F)c(N3CCN(Cc4nc5c6ccccc6nc(N)n5n4)CC3)cc12 [Ex-160],343
16,COCCOc1ccc(N2CCN(Cc3nc4c5ccccc5nc(N)n4n3)CC2)cc1 [Ex-161],525

row,SMILES,EC50 [nM]
1,COCCOc1ccc(N2CCN(Cc3nc4c5cc(F)cc(F)c5nc(N)n4n3)CC2)cc1 [Ex-162],74.2
2,COc1cccc2c1nc(N)n1nc(CCN3CCN(c4ncc(F)cn4)CC3)nc21 [Ex-163],7.8
3,COc1cccc2c1nc(N)n1nc(CCN3CCN(c4ccc(F)cn4)CC3)nc21 [Ex-164],2.5
4,COc1cccc2c1nc(N)n1nc(CCN3CCN(c4ccccn4)CC3)nc21 [Ex-165],3.3
5,COc1cccc2c1nc(N)n1nc(CCN3CCN(c4ccccc4)CC3)nc21 [Ex-166],13.5
6,COc1cccc2c1nc(N)n1nc(CN3CCN(c4ccccn4)CC3)nc21 [Ex-170],157
7,COc1cccc2c1nc(N)n1nc(CN3CCN(C(=O)OC(C)(C)C)CC3C(F)(F)F)nc21 (stereo not shown) [Ex-171],30.4
8,COc1cccc2c1nc(N)n1nc(CN3CCN(c4ccc(F)cc4)CC3C(F)F)nc21 (stereo not shown) [Ex-175],5.6
9,COc1cccc2c1nc(N)n1nc(CN3CCN(c4ccc(F)cc4)CC3CF)nc21 (stereo not shown) [Ex-176],8.9
10,COc1cccc2c1nc(N)n1nc(CN3CCN(c4ccc(F)cc4)CC3C(F)(F)F)nc21 (stereo not shown) [Ex-177],12.7
11,COc1ccc(N2CCN(Cc3nc4c5cccc(OC)c5nc(N)n4n3)CC2(C)C)cc1 [Ex-180],1.1
12,COc1cccc2c1nc(N)n1nc(CN3CCN(c4ccc(F)cc4)[C@@H](C)C3)nc21 [Ex-181],19.9
13,COc1cccc2c1nc(N)n1nc(CN3CCN(c4ccc(F)cc4)CC3(C)C)nc21 [Ex-183],5
14,COc1ccc(N2CCN(Cc3nc4c5cc(F)cc(OC)c5nc(N)n4n3)CC2(C)C)cc1 [Ex-184],16.4
15,COc1cccc(N2CCN(Cc3nc4c5cc(F)cc(OC)c5nc(N)n4n3)CC2(C)C)c1 [Ex-186],3.5
